In ChEMBL document CHEMBL4138123, “Design, synthesis and biological evaluation of novel pyrazolochalcones as potential modulators of PI3K/Akt/mTOR pathway and inducers of apoptosis in breast cancer cells” (Eur J Med Chem, 2017):

What was measured:
Format in all cases: functional
NCI-H522 = experiment: Cytotoxicity against human NCI-H522 cells assessed as cell growth at 10 uM after 48 hrs by sulforhodamine B assay relative to control; details: NCI-H522, 48 h, read-out: Activity
NCI-H226 [1] = experiment: Cytotoxicity against human NCI-H226 cells assessed as cell growth at 0.01 uM after 48 hrs by sulforhodamine B assay relative to control; details: NCI-H226, 48 h, read-out: Activity
K562 = experiment: Cytotoxicity against human K562 cells assessed as cell growth at 0.1 uM after 48 hrs by sulforhodamine B assay relative to control; details: K562, 48 h, read-out: Activity
SF-268 = experiment: Cytotoxicity against human SF268 cells assessed as growth inhibition after 48 hrs by sulforhodamine B assay; details: SF-268, 48 h
OVCAR-8 = experiment: Cytotoxicity against human OVCAR8 cells assessed as cell growth at 0.1 uM after 48 hrs by sulforhodamine B assay relative to control; details: OVCAR-8, 48 h, read-out: Activity
BT-549 = experiment: Cytotoxicity against human BT549 cells assessed as growth inhibition after 48 hrs by sulforhodamine B assay; details: BT-549, 48 h
Hs-578T = experiment: Cytotoxicity against human Hs 578T cells assessed as growth inhibition after 48 hrs by sulforhodamine B assay
A498 = experiment: Cytotoxicity against human A498 cells assessed as cell growth at 100 uM after 48 hrs by sulforhodamine B assay relative to control; details: A498, 48 h, read-out: Activity
CCRF-CEM [2] = experiment: Cytotoxicity against human CCRF-CEM cells assessed as cell growth at 0.01 uM after 48 hrs by sulforhodamine B assay relative to control; details: read-out: Activity
U-251 = experiment: Cytotoxicity against human U251 cells assessed as growth inhibition after 48 hrs by sulforhodamine B assay; details: U-251, 48 h
PC-3 = experiment: Cytotoxicity against human PC3 cells assessed as growth inhibition after 48 hrs by sulforhodamine B assay; details: PC-3, 48 h
NCI-H226 [3] = experiment: Cytotoxicity against human NCI-H226 cells assessed as growth inhibition after 48 hrs by sulforhodamine B assay; details: NCI-H226, 48 h
UACC-257 [4] = experiment: Cytotoxicity against human UACC257 cells assessed as cell growth at 1 uM after 48 hrs by sulforhodamine B assay relative to control; details: UACC-257, 48 h, read-out: Activity
KM12 [5] = experiment: Cytotoxicity against human KM12 cells assessed as growth inhibition after 48 hrs by sulforhodamine B assay; details: KM12, 48 h
MDA-MB-435 = experiment: Cytotoxicity against human MDA-MB-435 cells assessed as cell growth at 100 uM after 48 hrs by sulforhodamine B assay relative to control; details: MDA-MB-435, 48 h, read-out: Activity
786-0 = experiment: Cytotoxicity against human 786-0 cells assessed as cell growth at 1 uM after 48 hrs by sulforhodamine B assay relative to control; details: 786-0, 48 h, read-out: Activity
HT-29 [6] = experiment: Cytotoxicity against human HT-29 cells assessed as cell growth at 1 uM after 48 hrs by sulforhodamine B assay relative to control; details: HT-29, 48 h, read-out: Activity
HCT-116 = experiment: Cytotoxicity against human HCT116 cells assessed as cell growth at 10 uM after 48 hrs by sulforhodamine B assay relative to control; details: HCT-116, 48 h, read-out: Activity
HT-29 [7] = experiment: Cytotoxicity against human HT-29 cells assessed as cell growth at 10 uM after 48 hrs by sulforhodamine B assay relative to control; details: HT-29, 48 h, read-out: Activity
SK-OV-3 [8] = experiment: Cytotoxicity against human SKOV3 cells assessed as cell growth at 0.1 uM after 48 hrs by sulforhodamine B assay relative to control; details: SK-OV-3, 48 h, read-out: Activity
UACC-257 [9] = experiment: Cytotoxicity against human UACC257 cells assessed as cell growth at 0.1 uM after 48 hrs by sulforhodamine B assay relative to control; details: UACC-257, 48 h, read-out: Activity
SK-OV-3 [10] = experiment: Cytotoxicity against human SKOV3 cells assessed as cell growth at 10 uM after 48 hrs by sulforhodamine B assay relative to control; details: SK-OV-3, 48 h, read-out: Activity
NCI/ADR-RES = experiment: Cytotoxicity against human NCI/ADR-RES cells assessed as growth inhibition after 48 hrs by sulforhodamine B assay
OVCAR-5 = experiment: Cytotoxicity against human OVCAR5 cells assessed as growth inhibition after 48 hrs by sulforhodamine B assay; details: OVCAR-5, 48 h
HT-29 [11] = experiment: Cytotoxicity against human HT-29 cells assessed as cell growth at 0.01 uM after 48 hrs by sulforhodamine B assay relative to control; details: HT-29, 48 h, read-out: Activity
RXF 393 [12] = experiment: Cytotoxicity against human RXF393 cells assessed as cell growth at 0.01 uM after 48 hrs by sulforhodamine B assay relative to control; details: RXF 393, 48 h, read-out: Activity
RXF 393 [13] = experiment: Cytotoxicity against human RXF393 cells assessed as cell growth at 100 uM after 48 hrs by sulforhodamine B assay relative to control; details: RXF 393, 48 h, read-out: Activity
MDA-MB-231 = experiment: Cytotoxicity against human MDA-MB-231 cells assessed as cell growth at 0.1 uM after 48 hrs by sulforhodamine B assay relative to control; details: MDA-MB-231, 48 h, read-out: Activity
CCRF-CEM [14] = experiment: Cytotoxicity against human CCRF-CEM cells assessed as cell growth at 0.1 uM after 48 hrs by sulforhodamine B assay relative to control; details: read-out: Activity
HT-29 [15] = experiment: Cytotoxicity against human HT-29 cells assessed as growth inhibition after 48 hrs by sulforhodamine B assay; details: HT-29, 48 h
SNB-19 = experiment: Cytotoxicity against human SNB19 cells assessed as cell growth at 0.01 uM after 48 hrs by sulforhodamine B assay relative to control; details: SNB-19, 48 h, read-out: Activity
KM12 [16] = experiment: Cytotoxicity against human KM12 cells assessed as cell growth at 10 uM after 48 hrs by sulforhodamine B assay relative to control; details: KM12, 48 h, read-out: Activity
KM12 [17] = experiment: Cytotoxicity against human KM12 cells assessed as cell growth at 1 uM after 48 hrs by sulforhodamine B assay relative to control; details: KM12, 48 h, read-out: Activity
RXF 393 [18] = experiment: Cytotoxicity against human RXF393 cells assessed as cell growth at 1 uM after 48 hrs by sulforhodamine B assay relative to control; details: RXF 393, 48 h, read-out: Activity
RPMI-8226 = experiment: Cytotoxicity against human RPMI8226 cells assessed as cell growth at 10 uM after 48 hrs by sulforhodamine B assay relative to control; details: RPMI-8226, 48 h, read-out: Activity
UACC-62 = experiment: Cytotoxicity against human UACC62 cells assessed as cell growth at 1 uM after 48 hrs by sulforhodamine B assay relative to control; details: UACC-62, 48 h, read-out: Activity

COc1cc(-c2cc(/C=C/C(=O)c3ccc(N)cc3)[nH]n2)cc(OC)c1OC
growth at 10 µM (NCI-H522): -51% | growth at 0.01 µM (NCI-H226 [1]): 92% | growth at 0.1 µM (K562): 94% | GI50 (SF-268): 1690 nM | TGI (SF-268): 3.93 µM | CC50 (SF-268; read-out: LC50 (the source's name)): 9.16 µM | growth at 0.1 µM (OVCAR-8): 98% | GI50 (BT-549): 1380 nM | LC50 (concentration killing 50% of cells) (BT-549): 5.76 µM | TGI (BT-549): 2820 nM | GI50 (Hs-578T): 4.33 µM | LC50 (Hs-578T): > 100 µM | TGI (Hs-578T): > 100 µM | growth at 100 µM (A498): -96% | growth at 0.01 µM (CCRF-CEM [2]): 96% | GI50 (U-251): 1420 nM | LC50 (U-251): 5.39 µM | TGI (U-251): 2770 nM | GI50 (PC-3): 2210 nM | LC50 (PC-3): > 100 µM | TGI (PC-3): 10.4 µM | GI50 (NCI-H226 [3]): 1710 nM | LC50 (concentration killing 50% of cells) (NCI-H226 [3]): 7.18 µM | TGI (NCI-H226 [3]): 3.51 µM | growth at 1 µM (UACC-257 [4]): 91% | GI50 (KM12 [5]): 1410 nM | LC50 (KM12 [5]): 7.27 µM | TGI (KM12 [5]): 2880 nM | growth at 100 µM (MDA-MB-435): -85% | growth at 1 µM (786-0): 81% | growth at 1 µM (HT-29 [6]): 82% | growth at 10 µM (HCT-116): -78% | growth at 10 µM (HT-29 [7]): -38% | growth at 0.1 µM (SK-OV-3 [8]): 98% | growth at 0.1 µM (UACC-257 [9]): 93% | growth at 10 µM (SK-OV-3 [10]): -9% | GI50 (NCI/ADR-RES): 3.8 µM | LC50 (NCI/ADR-RES): > 100 µM | TGI (NCI/ADR-RES): 65.8 µM | GI50 (OVCAR-5): 1780 nM | LC50 (OVCAR-5): 7.91 µM | TGI (OVCAR-5): 3.75 µM | growth at 0.01 µM (HT-29 [11]): 98% | growth at 0.01 µM (RXF 393 [12]): 91% | growth at 100 µM (RXF 393 [13]): -86% | growth at 0.1 µM (MDA-MB-231): 91% | growth at 0.1 µM (CCRF-CEM [14]): 91% | GI50 (HT-29 [15]): 1850 nM | LC50 (HT-29 [15]): > 100 µM | TGI (HT-29 [15]): 4.82 µM | growth at 0.01 µM (SNB-19): 96% | growth at 10 µM (KM12 [16]): -67% | growth at 1 µM (KM12 [17]): 57% | growth at 1 µM (RXF 393 [18]): 67% | growth at 10 µM (RPMI-8226): -35% | growth at 1 µM (UACC-62): 86%
